Measured values reported in US20100167956A1, “DNA CHIP FOR DETECTION OF ESCHERICHIA COLI” (MEDIGENES CO., LTD., priority 2007, published 2010).
Converted amounts (≈) assume the structure as drawn.

Legend:
[1] = test system: E. coli (ATCC 25922); experiment: MIC (minimal inhibitory concentration) test, standard dilution method; type: cell-based; settings: Escherichia coli, ATCC25922; E. coli ATCC 25922, standard dilution method
Excerpt: For the strain, E. coli (ATCC 25922) was used, and for the antibiotic, Ceftriaxone (CJ, Seoul, Korea), to which E. coli has not developed resistance, was used for the sensitivity test.
First, each strain activated by two subcultures was used to estimate the antibiotic sensitivity by MIC (minimal inhibitory concentration) test. For the MIC test, a standard dilution method (Performance Standards for Antimicrobial Susceptibility Testing; Fifteenth Informational Supplement, Clinical and Laboratory Standard Institute, M100-S15, Vol. 25, No. 1, 2005) was used according to CLIS (The Clinical and Laboratory Standards Institute) guidelines.

[2] = test system: E. coli (ATCC 25922); experiment: Plate count of E. coli in antibiotic-treated cultures; settings: 1st-3rd experiment

CO/N=C(\C(=O)N[C@@H]1C(=O)N2C(C(=O)O)=C(CSc3nc(=O)c(=O)[nH]n3C)CS[C@H]12)c1csc(N)n1 [Ceftriaxone]
MIC [1]: 0.12 µg/mL (≈ 0.216 µM) | CFU (number of bacteria, plate count) ([2]; EC-1-04: 1 MIC antibiotic, 4 hr): 0 CFU | CFU (number of bacteria, plate count) ([2]; EC-1-06: 1 MIC antibiotic, 6 hr): 0 CFU | CFU (number of bacteria, plate count) ([2]; EC-1-12: 1 MIC antibiotic, 12 hr): 0 CFU | CFU (number of bacteria, plate count) ([2]; EC-1-24: 1 MIC antibiotic, 24 hr): 0 CFU | CFU (number of bacteria, plate count) ([2]; EC-2-02: 2 MIC antibiotic, 2 hr): 0 CFU | CFU (number of bacteria, plate count) ([2]; EC-2-04: 2 MIC antibiotic, 4 hr): 0 CFU | CFU (number of bacteria, plate count) ([2]; EC-2-06: 2 MIC antibiotic, 6 hr): 0 CFU | CFU (number of bacteria, plate count) ([2]; EC-2-12: 2 MIC antibiotic, 12 hr): 0 CFU | CFU (number of bacteria, plate count) ([2]; EC-2-24: 2 MIC antibiotic, 24 hr): 0 CFU
